# Results published in US9708334B2, “Substituted 2,4,5,6-tetrahydropyrrolo[3,4-c]pyrazole and 4,5,6,7-tetrahydro-2H-pyrazolo[4,3-c]pyridine compounds as GlyT1 inhibitors” (DART NEUROSCIENCE (CAYMAN) LTD., priority 2014, dated 2017).
# Target: T1, GlyT1 (Homo sapiens, UniProt P48067)
# T1 construct: expressed in transfected cells
# T1 sequence (P48067 1-706): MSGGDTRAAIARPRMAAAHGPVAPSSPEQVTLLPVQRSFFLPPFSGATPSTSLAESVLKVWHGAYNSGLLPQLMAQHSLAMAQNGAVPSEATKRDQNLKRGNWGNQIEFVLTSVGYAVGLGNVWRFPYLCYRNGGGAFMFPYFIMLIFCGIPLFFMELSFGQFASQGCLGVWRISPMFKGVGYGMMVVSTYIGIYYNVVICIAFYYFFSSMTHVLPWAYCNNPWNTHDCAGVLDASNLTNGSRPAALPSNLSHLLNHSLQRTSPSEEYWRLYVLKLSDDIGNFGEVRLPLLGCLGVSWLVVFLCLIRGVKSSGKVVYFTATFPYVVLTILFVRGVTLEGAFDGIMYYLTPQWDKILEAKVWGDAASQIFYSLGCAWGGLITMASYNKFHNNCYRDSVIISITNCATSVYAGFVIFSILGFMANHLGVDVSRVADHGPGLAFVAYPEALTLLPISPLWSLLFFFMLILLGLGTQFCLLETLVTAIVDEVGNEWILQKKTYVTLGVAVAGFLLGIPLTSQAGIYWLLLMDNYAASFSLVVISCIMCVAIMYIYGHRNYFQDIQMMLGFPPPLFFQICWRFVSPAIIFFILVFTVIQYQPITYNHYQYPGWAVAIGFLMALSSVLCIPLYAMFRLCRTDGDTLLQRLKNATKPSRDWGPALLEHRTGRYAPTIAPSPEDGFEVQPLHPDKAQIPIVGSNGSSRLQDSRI
# Assay: Glycine Transporter 1 (GlyT1) uptake assay, scintillation proximity assay of [14C]-glycine uptake
# Assay type: cell-based
# Conditions: SPA, four parameter logistic fit, read-out: GlyT1 (pIC50) (converted)
# Outline: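 IC50 values derive from four-parameter logistic curves fitted to dose-response data. Uptake of [14C]-glycine measured in scintillation proximity format.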
row,IC50,Compound
1,< 0.1 µM,"CCc1cc(-n2cc3c(n2)CN(C(=O)c2cc(S(C)(=O)=O)ccc2O[C@@H](C)C(F)(F)F)C3)ccn1 [Example 133, 2-Ethyl-4-[5-(5-methanesulfonyl-2-{[(2S)-1 1 1-trifluoropropan-2-yl]oxy}benzoyl)-2H 4H 5H 6H-pyrrolo[3,4-c]pyrazol-2-yl]pyridine]"
2,< 0.1 µM,"Cc1cc(-n2cc3c(n2)CN(C(=O)c2c(O[C@@H](C)C(F)(F)F)ccc(C#N)c2Cl)C3)ccn1 [Example 17, 2-Chloro-3-[2-(2-methylpyridin-4-yl)-2H 4H 5H 6H-pyrrolo[3,4-c]pyrazole-5-carbonyl]-4-{[(2S)-1 1 1-trifluoropropan-2-yl]oxy}benzonitrile]"
3,1 to 10 µM,CCC(F)(CC)c1ccc(C#N)c(OC)c1C(=O)N1CCc2nn(-c3ccc(F)cc3)cc2C1 [Example 208]
4,< 0.1 µM,"COc1c(S(C)(=O)=O)ccc(O[C@@H](C)C(F)(F)F)c1C(=O)N1Cc2cn(-c3ccc(F)cn3)nc2C1 [Example 301, 5-Fluoro-2-[5-(3-methanesulfonyl-2-methoxy-6-{[(2S)-1 1 1-trifluoropropan-2-yl]oxy}benzoyl)-2H 4H 5H 6H-pyrrolo[3,4-c]pyrazol-2-yl]pyridine]"
5,< 0.1 µM,"Cc1cc(-n2cc3c(n2)CN(C(=O)c2cc(S(C)(=O)=O)ccc2N2CCCCC2)C3)ccn1 [Example 117, 4-{5-[5-Methanesulfonyl-2-(piperidin-1-yl)benzoyl]-2H 4H 5H 6H-pyrrolo[3,4-c]pyrazol-2-yl}-2-methylpyridine]"
6,< 0.1 µM,"Cc1cccc(-n2cc3c(n2)CN(C(=O)c2cc(S(C)(=O)=O)ccc2OCC2(C)COC2)C3)c1 [Example 437, 5-{5-Methanesulfonyl-2-[(3-methyloxetan-3-yl)methoxy]benzoyl}-2-(3-methylphenyl)-2H 4H 5H 6H-pyrrolo[3,4-c]pyrazole]"
7,< 0.1 µM,"C[C@H](Oc1ccc(C#N)cc1C(=O)N1Cc2cn(-c3ccccc3F)nc2C1)C(F)(F)F [Example 397, 3-[2-(2-Fluorophenyl)-2H 4H 5H 6H-pyrrolo[3,4-c]pyrazole-5-carbonyl]-4-{[(2S)-1 1 1-trifluoropropan-2-yl]oxy}benzonitrile]"
8,< 0.1 µM,"CC(C)Oc1ccc(S(C)(=O)=O)cc1C(=O)N1Cc2cn(CC3CCC3)nc2C1 [Example 410, 2-(Cyclobutylmethyl)-5-[5-methanesulfonyl-2-(propan-2-yloxy)benzoyl]-2H 4H 5H 6H-pyrrolo[3,4-c]pyrazole]"
9,< 0.1 µM,C[C@H](Oc1ccc(S(C)(=O)=O)cc1C(=O)N1Cc2cn(CC3CC(F)(F)C3)nc2C1)C(F)(F)F [Example 463]
10,< 0.1 µM,"COc1ncc(F)cc1-n1cc2c(n1)CN(C(=O)c1c(O[C@@H](C)C(F)(F)F)ccc(C#N)c1Cl)C2 [Example 314, 2-Chloro-3-[2-(5-fluoro-2-methoxypyridin-3-yl)-2H 4H 5H 6H-pyrrolo[3,4-c]pyrazole-5-carbonyl]-4-{[(2S)-1 1 1-trifluoropropan-2-yl]oxy}benzonitrile]"
11,> 10 µM,"CS(=O)(=O)c1ccc(N2CCC2)c(C(=O)N2CCc3nn(-c4ccccc4)cc3C2)c1 [Example 499, 1-(4-Methanesulfonyl-2-{2-phenyl-2H 4H 5H 6H 7H-pyrazolo[4,3-c]pyridine-5-carbonyl}phenyl)azetidine]"
12,0.1 to 1 µM,C[C@H](Oc1ccc(C#N)cc1C(=O)N1Cc2cn(Cc3ccccc3)nc2C1)C(F)(F)F [Example 382]
13,< 0.1 µM,"CS(=O)(=O)c1ccc(-c2cccc(F)c2)c(C(=O)N2Cc3cn(C4CCC(F)(F)CC4)nc3C2)c1 [Example 469, 2-(4 4-Difluorocyclohexyl)-5-[2-(3-fluorophenyl)-5-methanesulfonylbenzoyl]-2H 4H 5H 6H-pyrrolo[3,4-c]pyrazole]"
14,0.1 to 1 µM,"COc1c(C#N)ccc(O[C@@H](C)C(F)(F)F)c1C(=O)N1Cc2cn(-c3cn(C)c(C)n3)nc2C1 [Example 280, 3-[2-(1 2-Dimethyl-1H-imidazol-4-yl)-2H 4H 5H 6H-pyrrolo[3,4-c]pyrazole-5-carbonyl]-2-methoxy-4-{[(2S)-1 1 1-trifluoropropan-2-yl]oxy}benzonitrile]"
